Experimental data reported in PubChem BioAssay AID256 (DTP/NCI, 2004).
Values joined by “and” are separate entries in the source; they are usually repeats but may differ in a detail not shown here. Equal values may be shown once. Toxic doses and inconclusive results are not listed. How the source made its calls: active means survival T/C of 150% or more; inactive means T/C below 125% in these data.

Test system: CD2F1 mice, L1210 leukemia ip, survival T/C
Assay: NCI In Vivo Anticancer Drug Screen. Data for tumor model L1210 Leukemia (intraperitoneal) in CD2F1 (CDF1) mice
Details: higher = longer survival
How it was run: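 Transplantable tumor in mice; compound-treated vs vehicle-treated groups. Read-out = treated/control ratio of the measured endpoint.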

[1] = endpoint: mean survival time, dose: 50.0 mg/kg/injection, schedule: Q01DX009 (ip), vehicle: saline with Tween-80
[2] = endpoint: mean survival time, dose: 100.0 mg/kg/injection, schedule: Q01DX009 (ip), vehicle: saline with Tween-80
[3] = endpoint: mean survival time, dose: 100.0 mg/kg/injection, schedule: Q04DX003 (ip), vehicle: saline with Tween-80
[4] = endpoint: mean survival time, dose: 200.0 mg/kg/injection, schedule: Q04DX003 (ip), vehicle: saline with Tween-80

Measured: T/C

Oc1ccccc1C=NCC[N-]CCN=Cc1ccccc1O.[Co]
inactive: endpoint: mean survival time, dose: 12.5 mg/kg/injection, schedule: Q01DX009 (ip), vehicle: saline 115 % of control | endpoint: mean survival time, dose: 12.5 mg/kg/injection, schedule: Q04DX003 (ip), vehicle: saline 107 % of control | endpoint: mean survival time, dose: 25.0 mg/kg/injection, schedule: Q01DX009 (ip), vehicle: saline 103 % of control | endpoint: mean survival time, dose: 25.0 mg/kg/injection, schedule: Q04DX003 (ip), vehicle: saline 100 % of control | endpoint: mean survival time, dose: 50.0 mg/kg/injection, schedule: Q01DX009 (ip), vehicle: saline 97 % of control | endpoint: mean survival time, dose: 50.0 mg/kg/injection, schedule: Q04DX003 (ip), vehicle: saline 103 % of control | endpoint: mean survival time, dose: 100.0 mg/kg/injection, schedule: Q04DX003 (ip), vehicle: saline 107 % of control

COC(=O)C1CCOC1=O (stereo unspecified)
inactive: endpoint: mean survival time, dose: 100.0 mg/kg/injection, schedule: Q04DX002 (ip), vehicle: saline 98 % of control | endpoint: mean survival time, dose: 200.0 mg/kg/injection, schedule: Q04DX002 (ip), vehicle: saline 98 % of control | endpoint: mean survival time, dose: 400.0 mg/kg/injection, schedule: Q04DX002 (ip), vehicle: saline 102 % of control

CC(NC=O)(C(=O)O)c1ccccc1 (stereo unspecified)
inactive: endpoint: mean survival time, dose: 50.0 mg/kg/injection, schedule: Q01DX001 (ip), vehicle: other 102 % of control | endpoint: mean survival time, dose: 100.0 mg/kg/injection, schedule: Q01DX001 (ip), vehicle: other 97 % of control and 90 % of control | endpoint: mean survival time, dose: 200.0 mg/kg/injection, schedule: Q01DX001 (ip), vehicle: other 100 % of control and 102 % of control | endpoint: mean survival time, dose: 400.0 mg/kg/injection, schedule: Q01DX001 (ip), vehicle: other 97 % of control

Cc1cc(Cl)ccc1NC(=O)OCCOc1ccc([N+](=O)[O-])cc1
inactive: [1] 96 % of control | [2] 96 % of control | endpoint: mean survival time, dose: 200.0 mg/kg/injection, schedule: Q01DX009 (ip), vehicle: saline with Tween-80 100 % of control

CC(C)(C)C(=O)CC(=O)C(C)(C)C.CC(C)(C)C(=O)CC(=O)C(C)(C)C.CC(C)(C)C(=O)CC(=O)C(C)(C)C.[Sc]
inactive: endpoint: mean survival time, dose: 50.0 mg/kg/injection, schedule: Q04DX003 (ip), vehicle: saline with Tween-80 94 % of control | [3] 94 % of control and 100 % of control | [4] 97 % of control and 104 % of control | endpoint: mean survival time, dose: 400.0 mg/kg/injection, schedule: Q04DX003 (ip), vehicle: saline with Tween-80 95 % of control

CC(=O)OC1(c2cc(C(F)(F)F)cc(C(F)(F)F)c2)C2CCC1CC2 (stereo unspecified)
inactive: endpoint: mean survival time, dose: 12.5 mg/kg/injection, schedule: Q04DX002 (ip), vehicle: saline with Tween-80 101 % of control | endpoint: mean survival time, dose: 25.0 mg/kg/injection, schedule: Q04DX002 (ip), vehicle: saline with Tween-80 97 % of control | endpoint: mean survival time, dose: 50.0 mg/kg/injection, schedule: Q04DX002 (ip), vehicle: saline with Tween-80 97 % of control

O=[N+]([O-])C(Br)C(Br)c1ccccc1 (stereo unspecified)
inactive: endpoint: mean survival time, dose: 6.25 mg/kg/injection, schedule: Q01DX001 (ip), vehicle: Klucel (hydroxypropylcellulose) (HPC) 96 % of control | endpoint: mean survival time, dose: 12.5 mg/kg/injection, schedule: Q01DX001 (ip), vehicle: Klucel (hydroxypropylcellulose) (HPC) 97 % of control | endpoint: mean survival time, dose: 25.0 mg/kg/injection, schedule: Q01DX001 (ip), vehicle: Klucel (hydroxypropylcellulose) (HPC) 91 % of control | endpoint: mean survival time, dose: 50.0 mg/kg/injection, schedule: Q01DX001 (ip), vehicle: Klucel (hydroxypropylcellulose) (HPC) 102 % of control

O=CO.[Co]
inactive: endpoint: mean survival time, dose: 5.0 mg/kg/injection, schedule: Q01DX001 (ip), vehicle: saline 106 % of control | endpoint: mean survival time, dose: 10.0 mg/kg/injection, schedule: Q01DX001 (ip), vehicle: saline 103 % of control | endpoint: mean survival time, dose: 20.0 mg/kg/injection, schedule: Q01DX001 (ip), vehicle: saline 106 % of control | endpoint: mean survival time, dose: 40.0 mg/kg/injection, schedule: Q01DX001 (ip), vehicle: saline 100 % of control

O=C(/C=C\C=C\c1ccc2c(c1)OCO2)N1CCCCC1
inactive: endpoint: mean survival time, dose: 12.5 mg/kg/injection, schedule: Q01DX009 (ip), vehicle: saline with Tween-80 111 % of control | endpoint: mean survival time, dose: 25.0 mg/kg/injection, schedule: Q01DX009 (ip), vehicle: saline with Tween-80 107 % of control | [1] 104 % of control

CC(C)(C)C1=CC(=O)C(C(C)(C)C)=C(N=[N+]=[N-])C1=O
inactive: endpoint: mean survival time, dose: 100.0 mg/kg/injection, schedule: Q01DX001 (ip), vehicle: saline with Tween-80 101 % of control | endpoint: mean survival time, dose: 200.0 mg/kg/injection, schedule: Q01DX001 (ip), vehicle: saline with Tween-80 97 % of control | endpoint: mean survival time, dose: 400.0 mg/kg/injection, schedule: Q01DX001 (ip), vehicle: saline with Tween-80 97 % of control

CS(=O)(=O)c1cc(C(F)(F)F)cc([N+](=O)[O-])c1Cl
inactive: [1] 103 % of control | [2] 103 % of control | [3] 97 % of control | [4] 94 % of control

CC(O)C1OC(n2cnc3c(=O)[nH]cnc32)C(O)C1O (stereo unspecified)
inactive: endpoint: mean survival time, dose: 12.5 mg/kg/injection, schedule: Q01DX005 (ip), vehicle: distilled water + Tween-80 114 % of control | endpoint: mean survival time, dose: 25.0 mg/kg/injection, schedule: Q01DX005 (ip), vehicle: distilled water + Tween-80 112 % of control | endpoint: mean survival time, dose: 50.0 mg/kg/injection, schedule: Q01DX005 (ip), vehicle: distilled water + Tween-80 104 % of control | endpoint: mean survival time, dose: 100.0 mg/kg/injection, schedule: Q01DX005 (ip), vehicle: distilled water + Tween-80 102 % of control | endpoint: mean survival time, dose: 200.0 mg/kg/injection, schedule: Q01DX005 (ip), vehicle: distilled water + Tween-80 100 % of control | endpoint: median survival time, dose: 8.75 mg/kg/injection, schedule: Q01DX005 (ip), vehicle: distilled water + Tween-80 108 % of control | endpoint: median survival time, dose: 12.5 mg/kg/injection, schedule: Q01DX005 (ip), vehicle: water 97 % of control | endpoint: median survival time, dose: 17.5 mg/kg/injection, schedule: Q01DX005 (ip), vehicle: distilled water + Tween-80 108 % of control | endpoint: median survival time, dose: 25.0 mg/kg/injection, schedule: Q01DX005 (ip), vehicle: saline with Tween-80 98 % of control | endpoint: median survival time, dose: 25.0 mg/kg/injection, schedule: Q01DX005 (ip), vehicle: water 97 % of control | endpoint: median survival time, dose: 35.0 mg/kg/injection, schedule: Q01DX005 (ip), vehicle: distilled water + Tween-80 102 % of control | endpoint: median survival time, dose: 50.0 mg/kg/injection, schedule: Q01DX005 (ip), vehicle: saline with Tween-80 107 % of control | endpoint: median survival time, dose: 50.0 mg/kg/injection, schedule: Q01DX005 (ip), vehicle: water 109 % of control | endpoint: median survival time, dose: 70.0 mg/kg/injection, schedule: Q01DX005 (ip), vehicle: distilled water + Tween-80 97 % of control | endpoint: median survival time, dose: 100.0 mg/kg/injection, schedule: Q01DX005 (ip), vehicle: saline with Tween-80 98 % of control | endpoint: median survival time, dose: 100.0 mg/kg/injection, schedule: Q01DX005 (ip), vehicle: water 98 % of control | endpoint: median survival time, dose: 140.0 mg/kg/injection, schedule: Q01DX005 (ip), vehicle: distilled water + Tween-80 97 % of control | endpoint: median survival time, dose: 200.0 mg/kg/injection, schedule: Q01DX005 (ip), vehicle: saline with Tween-80 109 % of control | endpoint: median survival time, dose: 200.0 mg/kg/injection, schedule: Q01DX005 (ip), vehicle: water 102 % of control | endpoint: median survival time, dose: 400.0 mg/kg/injection, schedule: Q01DX005 (ip), vehicle: saline with Tween-80 101 % of control

N#Cc1cnn2ccn(C3OC(CO)C(O)C3O)c12 (stereo unspecified)
inactive: endpoint: median survival time, dose: 9.38 mg/kg/injection, schedule: Q01DX005 (ip), vehicle: water 97 % of control | endpoint: median survival time, dose: 18.75 mg/kg/injection, schedule: Q01DX005 (ip), vehicle: water 100 % of control | endpoint: median survival time, dose: 37.5 mg/kg/injection, schedule: Q01DX005 (ip), vehicle: water 98 % of control | endpoint: median survival time, dose: 75.0 mg/kg/injection, schedule: Q01DX005 (ip), vehicle: water 98 % of control | endpoint: median survival time, dose: 150.0 mg/kg/injection, schedule: Q01DX005 (ip), vehicle: water 97 % of control

CCOP(=[Se])(OCC)[Se][Se][Se]P(=[Se])(OCC)OCC
inactive: endpoint: mean survival time, dose: 100.0 mg/kg/injection, schedule: Q01DX001 (ip), vehicle: saline 108 % of control

Cc1ccc(/C(O)=C2/CC(C)(C)c3ccccc3C2=O)cc1
inactive: endpoint: mean survival time, dose: 100.0 mg/kg/injection, schedule: Q04DX003 (ip), vehicle: acetone 92 % of control | endpoint: mean survival time, dose: 200.0 mg/kg/injection, schedule: Q04DX003 (ip), vehicle: acetone 92 % of control | endpoint: mean survival time, dose: 400.0 mg/kg/injection, schedule: Q04DX003 (ip), vehicle: acetone 88 % of control
